The values below come from PubChem BioAssay AID1996.

Converted amounts (≈) assume the structure as drawn.

The conditions of this data set: buffer; pH 7.4; 200.0 µM.
As usually defined, the kinetic solubility is the concentration staying in solution when a stock, usually in DMSO, is diluted into the medium. Turning to `CC1=CC(C)(C)[N+](C)(C)c2ccccc21.[I-]`, the kinetic solubility stood at 41 µg/mL. As for `N#Cc1ccccc1NC(=O)CN1CC=C(c2ccccc2)CC1`, the solubility (kinetic) was 15.7 µg/mL (≈ 49.5 µM). Take `O=C(Nc1ccc(NC(=O)c2cccnc2)cc1)c1ccccc1`: the kinetic solubility was 0.8 µg/mL (≈ 2.52 µM).

`CC(=O)Nc1ccc(S(=O)(=O)N2c3ccc(F)cc3CCC2C)cc1` (configuration not stated) returned a kinetic solubility of 45.9 µg/mL (≈ 127 µM). `O=C(NCCCCc1ccccc1)Nc1ccc(F)cc1` registered a solubility (kinetic) of 2.3 µg/mL (≈ 8.03 µM). `C/C(N)=C(/C#N)C(=O)COC(=O)c1cc2c(s1)CCC(C)C2` (configuration not stated) gave a kinetic solubility of 4.7 µg/mL (≈ 14.8 µM). As for `O=C(NC1CCN(Cc2ccc3ccccc3c2)CC1)c1ccccc1`, the kinetic solubility was determined as 2.8 µg/mL (≈ 8.13 µM). In turn, `Cl.Nc1ccc2nc(CCCO)[nH]c2c1` registered a solubility (kinetic) greater than 39.6 µg/mL.

Regarding `O=C(c1ccccc1)C(C(=O)N1CCCCC1)n1ccccc1=O` (configuration not stated), the solubility (kinetic) is greater than 48.7 µg/mL.

In turn, `Cc1ccc(CNC(=O)Cc2cn(C)c3ccccc23)cc1` had a kinetic solubility of 2.2 µg/mL (≈ 7.52 µM). The compound `COC(=O)c1cc2occc2n1Cc1nc(-c2ccccc2F)oc1C` showed a solubility (kinetic) of 1.4 µg/mL (≈ 3.95 µM).

The compound `N#CC(=C=[N-])c1nc2ccccc2nc1-[n+]1ccccc1` yielded a solubility (kinetic) of 7.3 µg/mL (≈ 26.9 µM). As for `CCc1c(O)c(-c2ccccc2)c(=O)n(-c2ccccn2)c1-c1ccccc1`, the figure is greater than 55.3 µg/mL.

As for `O=C(Nc1ccccc1)Nc1ccc2ncoc2c1`, the kinetic solubility was 27.5 µg/mL (≈ 109 µM). For the compound `C=CCCOc1ccccc1C(N)=O`, the solubility (kinetic) was found to be 25.8 µg/mL (≈ 135 µM). In turn, `CCn1c(=O)c2ccccc2n(Cc2ccc([N+](=O)[O-])cc2)c1=O` returned a solubility (kinetic) of 5.6 µg/mL (≈ 17.2 µM). `O=C1C2C3C=CC(CC3)C2C(=O)N1c1cccc(Br)c1` (configuration not stated) returned a solubility (kinetic) of 2 µg/mL (≈ 6.02 µM). Take `CCOc1ccc(-c2c(C)n([O-])c3c([n+]2=O)CCCCC3)cc1`: the solubility (kinetic) is greater than 47.2 µg/mL.

`COc1ccc(S(=O)(=O)N2CCOCC2)cc1NC(=O)CSc1nnc(C2CC2)n1C`: the kinetic solubility is greater than 70.1 µg/mL. As to `CCn1c(NC(=O)C(C)C)c(-c2ccccc2)c(=O)c2ccccc21`, the solubility (kinetic) was determined as 30.9 µg/mL (≈ 92.4 µM). As for `CCC1CCC2(CC1)NC(=O)N(CC(=O)NCc1ccc(Cl)cc1)C2=O` (configuration not stated), the solubility (kinetic) was determined as 3.7 µg/mL (≈ 9.79 µM).

`Cc1ccccc1NC(=O)COC(=O)c1cc[n+]([O-])cc1`: the kinetic solubility is greater than 42.9 µg/mL.

Take `COc1cc(NC(=S)Nc2ccc(OC(F)F)cc2)cc(OC)c1`: the solubility (kinetic) worked out at 23.9 µg/mL (≈ 67.4 µM). Take `S=C(NCCc1ccccc1)Nc1ccccc1N1CCOCC1`: the kinetic solubility was greater than 51.2 µg/mL. On to `O=C(CN1CCS(=O)(=O)CC1)NNC(=O)C1CCCCC1`, for which the solubility (kinetic) was greater than 47.6 µg/mL. As for `CCOc1ccccc1NC(=O)Nc1ccc(CC#N)cc1`, the figure is 37.8 µg/mL (≈ 128 µM); as for `COc1cc(CCC(=O)N2CC(C)OC(C)C2)cc(OC)c1OC` (configuration not stated), greater than 50.6 µg/mL; as for `COc1ccc2c(c1)c(-c1csc(N)n1)c(C)n2C`, 27.7 µg/mL (≈ 101 µM). As for `CCOC(=O)c1c(O)c(Cl)c(C)[nH]c1=O`, the solubility (kinetic) was greater than 34.7 µg/mL. `Oc1ccc(NC(=S)Nc2ccc(F)cc2)cc1` yielded a kinetic solubility of 33.2 µg/mL (≈ 127 µM). To `CN(C)CCNC(=O)c1scc2c1CCCC2.Cl` belongs greater than 43.3 µg/mL; to `CCC(=O)Nc1ccc2c(c1)ncn2C`, greater than 30.5 µg/mL. To `CCOC(=O)C(=O)Nc1ccccc1C(=O)OCC` belongs greater than 39.8 µg/mL. `CCc1cc2c(CN(C)Cc3ccccc3F)cc(=O)oc2cc1O` returned a kinetic solubility of 9.5 µg/mL (≈ 27.8 µM). As for `N/C(=N\OC(=O)C1CC1)c1ccc([N+](=O)[O-])s1`, the figure is 26.4 µg/mL (≈ 103 µM); as for `CC1CCCC(NC(=O)CSc2cccc[n+]2[O-])C1C` (configuration not stated), greater than 44.2 µg/mL; as for `CCOC(=O)c1c(NC(=O)c2ccccc2C(=O)O)sc2c1CCCC2`, 41.5 µg/mL (≈ 111 µM).

For the compound `CC1CCC(NC(=O)c2cc3ccccc3cc2O)CC1` (configuration not stated), the kinetic solubility is 4.3 µg/mL (≈ 15.2 µM). As for `Cc1cccc(C(=O)Nc2ccc(O)cc2C(=O)O)c1`, the figure is greater than 40.7 µg/mL; as for `Cc1ccc(C)n1-c1ccc(C(=O)NCc2cccnc2)cc1`, greater than 45.8 µg/mL.

Turning to `NC(=O)C1CCCN(C(=O)c2ccc3c(c2)NC(=O)CS3)C1` (configuration not stated), the kinetic solubility was greater than 47.9 µg/mL. Compound `C=CCn1c(SCC(=O)NCC)nc2sc3c(c2c1=O)CCC3` displayed a solubility (kinetic) of 37.5 µg/mL (≈ 107 µM). For the compound `O=C(O)c1cc2cc(Oc3ccccc3)ccc2[nH]1`, the kinetic solubility was greater than 38 µg/mL. To `O=C(Cn1cc(C(F)(F)F)ccc1=O)N1CCCc2ccccc21` belongs greater than 50.4 µg/mL; to `N#Cc1cn(N2CCCCC2)c(=O)[nH]c1=O`, greater than 33 µg/mL.

The compound `Cc1ccc(-c2csc(CC(N)=O)n2)cc1` showed a solubility (kinetic) greater than 34.8 µg/mL.

`COc1ccc(C(=O)NCCc2c[nH]c3ccccc23)cc1OC` gave a kinetic solubility of 32 µg/mL (≈ 98.6 µM).

`COC(=O)CC1C(=O)NCCN1C(=O)c1sc2ccccc2c1Cl` (configuration not stated) showed a solubility (kinetic) greater than 55 µg/mL. Take `Cc1cc(=O)[nH]c(SCC(=O)c2ccc(O)c(O)c2)n1`: the solubility (kinetic) is greater than 43.8 µg/mL. `Cc1ccc(-c2nc(CNC(=O)c3ccco3)cs2)cc1` showed a kinetic solubility of 42 µg/mL (≈ 141 µM). `CC1CN(C(=O)COC(=O)c2ccc(F)cc2Cl)CC(C)O1` (configuration not stated) had a solubility (kinetic) of 43.1 µg/mL (≈ 131 µM). As for `CSc1nc2c(c(=O)[nH]c(=O)n2C)n1Cc1ccccc1`, the figure is greater than 45.4 µg/mL.
